Experimental findings from US8133909B2 (Hoffmann-La Roche Inc., priority 2008, dated 2012) are described below.

The target of this assay is T1, human orexin-2 (hOX2) receptors (Homo sapiens, UniProt O43614).
T1 construct: expressed in transfected cells
T1 sequence (O43614 1-444): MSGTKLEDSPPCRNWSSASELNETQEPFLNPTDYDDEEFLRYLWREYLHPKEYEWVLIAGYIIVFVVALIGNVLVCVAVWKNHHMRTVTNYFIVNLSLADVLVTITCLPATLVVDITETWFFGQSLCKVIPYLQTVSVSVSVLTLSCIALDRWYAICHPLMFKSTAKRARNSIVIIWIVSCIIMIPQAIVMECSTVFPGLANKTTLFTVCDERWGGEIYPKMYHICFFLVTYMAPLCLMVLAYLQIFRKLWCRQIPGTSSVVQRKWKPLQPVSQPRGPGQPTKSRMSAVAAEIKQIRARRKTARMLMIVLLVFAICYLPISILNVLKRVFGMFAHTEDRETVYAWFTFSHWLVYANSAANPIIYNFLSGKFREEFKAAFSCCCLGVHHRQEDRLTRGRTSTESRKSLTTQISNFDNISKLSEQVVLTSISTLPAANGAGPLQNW
The assay can be described thus: Intracellular Ca2+ mobilization assay (FLIPR), antagonism of orexin-A. The class given is cell-based. As to conditions: CHO(dHFr-) cells stably expressing hOX2; orexin-A at EC80 as agonist; antagonist applied 25 min before; Kb=IC50/(1+[A]/EC50); read-out: Kb (μM) OX2R (human). The method, then: Intracellular Ca^2+ Mobilization Assay
The Chinese Hamster Ovary (dHFr—) mutant cell line stably expressing human orexin-1 (hOX1) or human orexin-2 (hOX2) receptors were maintained in Dulbecco's Modified Eagle Medium (1X) with GlutaMax™ 1, 4500 mg/L D-Glucose and Sodium Pyruvate (Catalog No. 31966-021, Invitrogen, Carlsbad, Calif.), 5% dialyzed fetal calf serum (Catalog No. 26400-044), 100 μg/ml penicillin and 100 μg/ml streptomycin. The cells were seeded at 5×10^4 cells/well in the poly-D-lysine treated, 96-well, black/clear-bottomed plates (Catalog No. BD356640, BD Biosciences, Palo Alto, Calif.). 24 h later, the cells were loaded for 1 h at 37° C. with 4 μM Flou-4 acetoxymethyl ester (Catalog No. F-14202, Molecular Probes, Eugene, Oreg.) in FLIPR buffer (1×HBSS, 20 mM HEPES, 2.5 mM Probenecid). Hanks' Balanced Salt Solution (HBSS) (10×) (catalog No. 14065-049) and HEPES (1M) (catalog No. 15630-056) were purchased from Invitrogen, Carlsbad, Calif. Probenecid (250 mM) (catalog No. P8761) was from Sigma, Buchs, Switzerland. The cells were washed five times with FLIPR buffer to remove excess dye and intracellular calcium mobilization, [Ca^2+]i were measured using a Fluorometric Imaging Plate Reader (FLIPR-96, Molecular Devices, Menlo Park, Calif.) as described previously (Malherbe et al., Mol. Pharmacol., 64, 823-832, 2003). Orexin A (catalog No. 1455, Toris Cookson Ltd, Bristol, UK) was used as agonist. Orexin A (50 mM stock solution in DMSO) was diluted in FLIPR buffer +0.1% BSA. The EC50 and EC80 values of orexin-A were measured daily from standard agonist concentration-response curves in CHO(dHFr—)—OX1R and —OX2R cell lines. All compounds were dissolved in 100% DMSO. Inhibition curves were determined by addition of 11 concentrations (0.0001-10 μM) of inhibitory compounds and using EC80 value of orexin-A as agonist (a concentration which gave 80% of max agonist response, determined daily). The antagonists were applied 25 min (incubation at 37° C.) before the application of the agonist. Responses were measured as peak increase in fluorescence minus basal, normalized to the maximal stimulatory effect induced by EC80 value of orexin-A or orexin- B. Inhibition curves were fitted according to the Hill equation: y=100/(1+(x/IC50)^nH), where nH=slope factor using Excel-fit 4 software (Microsoft). Kb values were calculated according to the following equation Kb=IC50/(1+[A]/EC50) where A is the concentration of agonist added which is very close to agonist EC80 value, and IC50 and EC50 values were derived from the antagonist inhibition and orexin-A or B agonist curves, respectively.
On the technique in general: Calcium flux is commonly read through the fluorescence of an indicator in the cells.

One may read the Kb as the equilibrium dissociation constant of an antagonist, usually derived from a functional assay.

The structures appear in SMILES notation.

As to `Cc1ccc(N(CCc2ccc(C(F)(F)F)nc2)C(=O)C(=O)c2ccccc2)cc1C` [Example 20, N-(3,4-Dimethyl-phenyl)-2-oxo-2-phenyl-N-[2-(6-trifluoromethyl-pyridin-3-yl)-ethyl]-acetamide], the Kb stood at 0.0916 µM. With `Cc1ccc(N(CCc2ccc(C(F)(F)F)nc2)C(=O)[C@@H](O)c2ccccc2)cc1` [Example 15, (S)-2-Hydroxy-2-phenyl-N-p-tolyl-N-[2-(6-trifluoromethyl-pyridin-3-yl)-ethyl]-acetamide] the figure was 0.0241 µM; with `O=C([C@@H](O)c1ccc(F)cc1)N(CCc1ccc(C(F)(F)F)cn1)c1ccc2c(c1)CCC2` [Example 86, (S)-2-(4-Fluoro-phenyl)-2-hydroxy-N-indan-5-yl-N-[2-(5-trifluoromethyl-pyridin-2-yl)-ethyl]-acetamide], 0.0378 µM. Take `O=C([C@@H](O)c1ccc(F)cc1)N(CCc1ccc(C(F)(F)F)nc1)c1ccc2c(c1)CCCC2` [Example 60, (S)-2-(4-Fluoro-phenyl)-2-hydroxy-N-(5,6,7,8-tetrahydro-naphthalen-2-yl)-N-[2-(6-trifluoromethyl-pyridin-3-yl)-ethyl]-acetamide]: the Kb is 0.0053 µM. Next, `Cc1ccc(N(CCc2ccc(C(F)(F)F)cn2)C(=O)C(O)c2ccc(F)cc2)cc1F` (racemic) [Example 78, (R,S)—N-(3-Fluoro-4-methyl-phenyl)-2-(4-fluoro-phenyl)-2-hydroxy-N-[2-(5-trifluoromethyl-pyridin-2-yl)-ethyl]-acetamide]: 0.0481 µM. With `Cc1ccc(N(CCc2ccc(C(F)(F)F)nc2)C(=O)[C@@H](NC2(CN)COC2)c2ccccc2)cc1C` [Example 8, (S)-2-(3-Aminomethyl-oxetan-3-ylamino)-N-(3,4-dimethyl-phenyl)-2-phenyl-N-[2-(6-trifluoromethyl-pyridin-3-yl)-ethyl]acetamide] the figure was 0.0263 µM. With `Cc1ccc(N(CCc2ccc(C(F)(F)F)cn2)C(=O)C(O)c2ccc(F)cc2)cc1OC(F)F` (racemic) [Example 95, (R,S)-N-(3-Difluoromethoxy-4-methyl-phenyl)-2-(4-fluoro-phenyl)-2-hydroxy-N-[2-(5-trifluoromethyl-pyridin-2-yl)-ethyl]-acetamide] the figure was 0.0195 µM; with `Cc1cc(N(CCc2ccc(C(F)(F)F)cn2)C(=O)C(O)c2ccc(F)cc2)ccc1F` (racemic) [Example 77, (R,S)—N-(4-Fluoro-3-methyl-phenyl)-2-(4-fluoro-phenyl)-2-hydroxy-N-[2-(5-trifluoromethyl-pyridin-2-yl)-ethyl]-acetamide], 0.0075 µM. On to `N[C@H](C(=O)N(CCc1ccc(C(F)(F)F)nc1)c1ccc2c(c1)CCCC2)c1ccccc1` [Example 9, (S)-2-Amino-2-phenyl-N-(5,6,7,8-tetrahydro-naphthalen-2-yl)-N-[2-(6-trifluoromethyl-pyridin-3-yl)-ethyl]-acetamide], for which the Kb came to 0.0006 µM. With `COc1ccc(N(CCc2ccc(C(F)(F)F)cn2)C(=O)C(O)c2ccc(F)cc2)cc1C` (racemic) [Example 93, (R,S)-2-(4-Fluoro-phenyl)-2-hydroxy-N-(4-methoxy-3-methyl-phenyl)-N-[2-(5-trifluoromethyl-pyridin-2-yl)-ethyl]-acetamide] the figure was 0.0146 µM; with `O=C(C(O)c1ccc(F)cc1)N(CCc1ccc(C(F)(F)F)cn1)c1ccc(OC(F)F)c(OC(F)F)c1` (racemic) [Example 96, (R,S)—N-(3,4-Bis-difluoromethoxy-phenyl)-2-(4-fluoro-phenyl)-2-hydroxy-N-[2-(5-trifluoromethyl-pyridin-2-yl)-ethyl]-acetamide], 0.0216 µM; with `Cc1ccc(N(CCc2ccc(C(F)(F)F)nc2)C(=O)[C@@H](N)c2ccc(F)cc2)cc1C` [Example 10, (S)-2-Amino-N-(3,4-dimethyl-phenyl)-2-(4-fluoro-phenyl)-N-[2-(6-trifluoromethyl-pyridin-3-yl)-ethyl]-acetamide], 0.0014 µM. With `Cc1ccc(N(CCc2ccc(C(F)(F)F)cn2)C(=O)[C@@H](O)c2ccc(F)cc2)cc1F` [Example 80, (S)—N-(3-Fluoro-4-methyl-phenyl)-2-(4-fluoro-phenyl)-2-hydroxy-N-[2-(5-trifluoromethyl-pyridin-2-yl)-ethyl]-acetamide] the figure was 0.0289 µM; with `Cc1cc(N(CCc2ccc(C(F)(F)F)cn2)C(=O)[C@@H](O)c2ccc(F)cc2)ccc1F` [Example 81, (S)—N-(4-Fluoro-3-methyl-phenyl)-2-(4-fluoro-phenyl)-2-hydroxy-N-[2-(5-trifluoromethyl-pyridin-2-yl)-ethyl]-acetamide], 0.0197 µM. For the molecule `COc1cc(N(CCc2ccc(C(F)(F)F)nc2)C(=O)[C@@H](O)c2ccc(F)cc2)ccc1C` [Example 61, (S)-2-(4-Fluoro-phenyl)-2-hydroxy-N-(3-methoxy-4-methyl-phenyl)-N-[2-(6-trifluoromethyl-pyridin-3-yl)-ethyl]-acetamide], the Kb is 0.0026 µM. With `COc1cc(N(CCc2ccc(C(F)(F)F)nc2)C(=O)[C@@H](O)c2ccccc2)ccc1C` [Example 19, (S)-2-Hydroxy-N-(3-methoxy-4-methyl-phenyl)-2-phenyl-N-[2-(6-trifluoromethyl-pyridin-3-yl)-ethyl]-acetamide] the figure was 0.0109 µM.
